{"source": "patent US20080145313A1", "about": "“Compositions and Methods for the Treatment and Prevention of Neoplastic Disorders” (Genesis Research & Development Corporation Limited, priority 2006, published 2008)", "key": {"[1]": {"system": "A549 xenograft tumor", "test": "Xenograft tumor growth of A549 cells transfected with siRNA pre-implantation in CD-1 nude mice", "type": "in vivo, mouse", "procedure": "To determine the effect of RRM1 knockdown on tumor growth, A549 cells (human lung cancer cell line; ATCC No. CCL-185) were reverse-transfected prior to implantation in CD-1 nude mice. In 175 cm^2 culture flasks, 10×10^6 A549 cells (in RPMI supplemented with 10% fetal calf serum) were added to pre-made lipoplexes. To make lipoplexes, Lipofectamine RNAiMAX in serum-free RPMI was added to an equal volume of serum-free RPMI containing siRNA (RRM1-2; SEQ ID NO: 4831 (DNA), and SEQ ID NO: 5137 (RNA)) and a control siRNA (SEQ ID NO: 4804 (DNA), and SEQ ID NO: 5301 (RNA)). After addition of cells, the final concentration of siRNA in the flask was 10 nM. Untransfected cells served as a further control. Flasks were incubated at 37° C. for 24 h to allow transfection to proceed.\nThe cells were harvested by trypsinization 24 h after the transfection, washed twice in PBS and viable cells were counted. Equal numbers of cells (1×10^7) were inoculated into CD-1 nude mice (n=7-9). Briefly, 5 to 7 weeks old nude mice were subcutaneously (s.c.) injected in the right flank with A549 cells in 100 μl PBS. Tumor growth was monitored 3 times per week by measuring tumor sizes using a digital caliper. Tumor volume was expressed in […] using the formula: V=a^2×b×0.52, where a and b represent the minimum and maximum tumor diameter, respectively. Mean tumor volumes calculated from each measurement were then plotted in a standard graph to compare the tumor growth of transfected cells to that of control.\nTo determine the effect of siRNA-mediated knockdown of HK-II, CAD, IMPDH2, RRM2, SLC16A1 and SLC29A1 on tumor growth, A549 cells (human lung cancer cell line; ATCC No. CCL-185) were reverse-transfected prior to implantation in CD-1 nude mice as described above with siRNAs given in SEQ ID NO: 5307 (DNA), and SEQ ID NO: 5304 (RNA) for RRM2, SEQ ID NO: 4932 (DNA), and SEQ ID NO: 5227 (RNA) for ENT1, SEQ ID NO: 4813 (DNA), and SEQ ID NO: 5119 (RNA) for HK-II, SEQ ID NO: 4827 (DNA), and SEQ ID NO: 5133 (RNA) for CAD, SEQ ID NO: 4879 (DNA), and SEQ ID NO: 5182 (RNA) for IMPDH2 and SEQ ID NO: 4924 (DNA), and SEQ ID NO: 5219 (RNA) for SLC16A1, respectively. The siRNA given in SEQ ID NO: 4804 (DNA), and SEQ ID NO: 5301 (RNA) was used as control.\nIn two separate experiments, CD-1 mice were divided into five groups that received untransfected A549 cells, cells transfected with control siRNA or three different siRNAs (as listed above), respectively. Cells were transfected in vitro using the method as described in Example 8, and 24 h after transfection, s.c. inoculated into mice. Tumor growth was measured 3 times per week. In the first experiment, mice received cells transfected with siRNA targeting RRM2, HK-II or SLC29A1 and were monitored for 33 days. In the second experiment, mice received cells transfected with siRNA targeting CAD, IMPDH2 or SLC16A1, and were monitored for 26 days. […] Similarly, preliminary data indicated tumor growth rate was reduced for the groups receiving cells transfected with siRNA targeting CAD and SLC16A1. Twenty-six days after cell inoculation, the tumor volume for mice with cells transfected with siRNA targeting CAD or SLC16A1 was 97.2±7.3 mm^3 or 110.1±28.1 mm^3, respectively."}, "[2]": {"system": "YBX1 mRNA", "test": "YBX1 mRNA level by quantitative RT-PCR in A549 cells", "type": "cell-based, human", "details": "24 h post-transfection", "procedure": "A549 cells were transfected with 10 nM RRM1-1 (SEQ ID NO: 4830 (DNA), and SEQ ID NO: 5136 (RNA); light grey bar in FIG. 12A), RRM1-2 (SEQ ID NO: 4831 (DNA), and SEQ ID NO: 5137 (RNA); dark grey bar in FIG. 12A), RRM1-3 (SEQ ID NO: 4832 (DNA), and SEQ ID NO: 5138 (RNA); black bar in FIG. 12A) or control siRNA (SEQ ID NO: 4804 (DNA), and SEQ ID NO: 5301 (RNA)) (open bar in FIG. 12A) and relative mRNA levels quantified 24 h post-transfection. RNA was purified from cells using Trizol® extraction as per the manufacturer's protocol (Invitrogen). cDNA was prepared by digesting approximately 200 ng purified RNA with DNAse I (Invitrogen) for 15 minutes at room temperature, followed by 15 minutes at 65° C. in the presence of 25 mM EDTA. 30 ng random primers were added and incubated for 10 minutes at room temperature, 1 minute on ice; Superscript III polymerase (Invitrogen) was added in presence of 5 nM DTT (Sigma, St Louis, Mo.) and 1 mM deoxyribonucleotides (Invitrogen), and the reaction incubated at 25° C. for 5 minutes, followed by an hour at 55° C. cDNA was diluted 1:3 in 10 mM Tris pH 7.0, and quantitative RT-PCR carried out on an ABI Prism 7900HT (Applied Biosciences, Inc., Foster City, Calif.) using FastStart TaqMan SYBRGreen (Roche, Basel, Switzerland) and specific primers at 360 nM for RRM1 and RRM2 and the housekeeping genes HPRT and Lamin. Primer sequence pairs used for RRM1, RRM2, HPRT and lamin are given in SEQ ID NO: 4881 and 4882; 4883 and 4884; 4885 and 4886; 4887 and 4888 respectively.\nA549 cells were transfected with 0.1, 1.0 and 10 nM siRNA (given in SEQ ID NO: 4981 to 4985 (DNA), and SEQ ID NO: 5276-5280 (RNA)) and the relative mRNA levels quantified 24 h post-transfection as described in Example 8."}}, "data": [{"substance": "SEQ ID NO: 4924: siRNA targeting SLC16A1 (MCT1) (chain 1 TTAGACTTATCTTTCCCTGCCTTGG; chain 2 UUAGACUUAUCUUUCCCUGCCUUGG; chemistry not given here; one strand in two spellings)", "values": [{"measurement": "tumor growth rate compared to control groups", "setting": "[1]; A549 cells transfected with siRNA before s.c. inoculation", "result": "reduced"}, {"measurement": "tumor volume", "setting": "[1]; twenty-six days after cell inoculation, preliminary data", "result": "110.1±28.1", "unit": "mm^3"}]}, {"substance": "SEQ ID NO: 4932: siRNA targeting SLC29A1 (ENT1) (chain 1 TGATAAAGTAGCCGAAGGCACTTTC; chain 2 UGAUAAAGUAGCCGAAGGCACUUUC; chemistry not given here; one strand in two spellings)", "values": [{"measurement": "tumor growth inhibition compared to the control groups", "setting": "[1]; cells transfected pre-implantation, monitored 33 or 26 days", "result": "No tumor growth inhibition"}]}, {"substance": "SEQ ID NO: 4982: siRNA targeting YBX1 (chain 1 TTTGCTGGTAATTGCGTGGAGGACC; chain 2 UUUGCUGGUAAUUGCGUGGAGGACC; chemistry not given here; one strand in two spellings)", "values": [{"measurement": "YBX1-specific reduction of mRNA levels in A549 cells", "setting": "[2]; 1 nM siRNA", "result": "+++ (At least 70% inhibition)"}, {"measurement": "YBX1-specific reduction of mRNA levels in A549 cells", "setting": "[2]; 10 nM siRNA", "result": "+++ (At least 70% inhibition)"}]}, {"substance": "SEQ ID NO: 4983: siRNA targeting YBX1 (chain 1 TACTGTGGTCGACGCCCATAGGGTC; chain 2 UACUGUGGUCGACGCCCAUAGGGUC; chemistry not given here; one strand in two spellings)", "values": [{"measurement": "YBX1-specific reduction of mRNA levels in A549 cells", "setting": "[2]; 10 nM siRNA", "result": "++ (At least 50% inhibition)"}]}, {"substance": "SEQ ID NO: 4984: siRNA targeting YBX1 (chain 1 CAAGGTAGACCAGTGAGGCAGAATA; chain 2 CAAGGUAGACCAGUGAGGCAGAAUA; chemistry not given here; one strand in two spellings)", "values": [{"measurement": "YBX1-specific reduction of mRNA levels in A549 cells", "setting": "[2]; 0.1 nM siRNA", "result": "+++ (At least 70% inhibition)"}, {"measurement": "YBX1-specific reduction of mRNA levels in A549 cells", "setting": "[2]; 1 nM siRNA", "result": "+++ (At least 70% inhibition)"}, {"measurement": "YBX1-specific reduction of mRNA levels in A549 cells", "setting": "[2]; 10 nM siRNA", "result": "+++ (At least 70% inhibition)"}]}, {"substance": "SEQ ID NO: 4985: siRNA targeting YBX1 (chain 1 CAGCCTAGAGAGGACGGCAATGAAG; chain 2 CAGCCUAGAGAGGACGGCAAUGAAG; chemistry not given here; one strand in two spellings)", "values": [{"measurement": "YBX1-specific reduction of mRNA levels in A549 cells", "setting": "[2]; 0.1 nM siRNA", "result": "+ (At least 20% inhibition)"}, {"measurement": "YBX1-specific reduction of mRNA levels in A549 cells", "setting": "[2]; 1 nM siRNA", "result": "++ (At least 50% inhibition)"}, {"measurement": "YBX1-specific reduction of mRNA levels in A549 cells", "setting": "[2]; 10 nM siRNA", "result": "++ (At least 50% inhibition)"}]}, {"substance": "SEQ ID NO: 5307: Stealth siRNA targeting RRM2 (chain 1 AATTCATCCCAATGAGCTTCACAGG; chain 2 AAUUCAUCCCAAUGAGCUUCACAGG; Stealth siRNA, chemical pattern not given here; one strand in two spellings)", "values": [{"measurement": "average tumor size", "setting": "[1]; thirty-three days after the cell inoculation, preliminary data", "result": "100.1±116.6", "unit": "mm^3"}]}]}
